This note sets out measurements from patent publication US4452778A, “Synergistic antibacterial compositions and method of treatment of infections caused by multiple antibiotic-resistant organisms” (Eli Lilly and Company, priority 1981, dated 1984).

This assay has as its system E. coli. Put plainly: Checkerboard broth dilution synergy study (mic). The assay is classed as cell-based. The following applies: Table II; for MIC: Escherichia coli, read-out: mic, drug alone. In general terms: In broth dilution the organism is exposed to a series of concentrations in liquid medium.

Each structure is given as a SMILES string. Where two headings read alike, the source gives them in different places.

Take `COC1(NC(=O)C(C(=O)O)c2ccc(O)cc2)C(=O)N2C(C(=O)O)=C(CSc3nnnn3C)COC21` (stereo not drawn) [1-oxa compound I, moxalactam]: the MIC (in general, the lowest concentration that inhibits growth of the organism) runs as follows: (strain 46-2) 0.03 µg/mL; (strain 77-3) 0.03 µg/mL; (strain 136-3) 0.06 µg/mL; (strain 1260) 0.03 µg/mL; (strain 1262) 0.03 µg/mL; (strain Briley) 0.12 µg/mL. Further, the MIC (strain Dill) amounted to 0.25 µg/mL. The “mic of each drug in combination I + P” value is, setting by setting: (strain 46-2) < 0.12 µg/mL; (strain 1253) 0.5 µg/mL; (strain 1262) < 0.12 µg/mL; (strain 1415) < 0.12 µg/mL; (strain Briley) < 0.12 µg/mL. Also, the “mic of each drug in combination I + T” value was < 0.12 µg/mL (strain 46-2); < 0.12 µg/mL (strain 77-3); < 0.12 µg/mL (strain 136-3); < 0.12 µg/mL (strain 1253); < 0.12 µg/mL (strain 1260); < 0.12 µg/mL (strain 1262). Also, the “mic of each drug in combination I + T” value runs as follows: (strain 1415) < 0.12 µg/mL; (strain Briley) < 0.12 µg/mL; (strain Dill) < 0.12 µg/mL.
